Legend:
[1] = Tmax in human; assay type: ADME, organism-based; settings: in vivo
[2] = Terminal phase half life in human; assay type: ADME, organism-based; settings: in vivo, read-out: beta t1/2 (converted)
[3] = Tmax in healthy obese adult male human at 25 mg, po administered as single dose; assay type: ADME, organism-based; settings: in vivo
[4] = Cmax in healthy obese adult male human at 25 mg, po administered as single dose; assay type: ADME, organism-based; set-up: dose 25 mg, route oral; settings: in vivo
Homo sapiens [5] = experiment: AUC (0 to last) in healthy obese adult male human at 25 mg, po administered as single dose; assay type: ADME, organism-based, Plasma; set-up: dose 25 mg, time 0 - last, route oral; settings: in vivo
Homo sapiens [6] = experiment: AUC (0 to infinity) in healthy obese adult male human at 25 mg, po administered as single dose; assay type: ADME, organism-based, Plasma; set-up: dose 25 mg, route oral, time infinity; settings: in vivo
[7] = Terminal elimination half life in healthy obese adult male human at 25 mg, po administered as single dose; assay type: ADME, organism-based; settings: in vivo, read-out: beta t1/2 (converted)
[8] = Bioavailability in rat; assay type: ADME, organism-based; settings: in vivo
[9] = Bioavailability in dog; assay type: ADME, organism-based, Canis lupus familiaris; settings: in vivo
Serum [10] = experiment: Total drug level in healthy obese adult male human serum at 25 mg, po administered as single dose after 48 hrs by HPLC method; assay type: ADME, organism-based; settings: in vivo
Rattus norvegicus = species: Rattus norvegicus; experiment: Drug recovery in rat; assay type: ADME, organism-based; settings: in vivo
Mus musculus = species: Mus musculus; experiment: Drug recovery in mouse; assay type: ADME, organism-based; settings: in vivo
Canis familiaris = species: Canis familiaris; experiment: Drug recovery in dog; assay type: ADME, organism-based, Canis lupus familiaris; settings: in vivo
Serum [11] = experiment: Drug level in healthy obese adult male human serum at 25 mg, po administered as single dose after 4 hrs by HPLC method; assay type: ADME, organism-based; settings: in vivo
Serum [12] = experiment: Drug level in healthy obese adult male human serum at 25 mg, po administered as single dose after 12 hrs by HPLC method; assay type: ADME, organism-based; settings: in vivo
Homo sapiens [13] = experiment: AUC (0 to infinity) in healthy obese adult male human assessed as total radioactivity at 25 mg, po administered as single dose; assay type: ADME, organism-based, Plasma; set-up: dose 25 mg, time infinity, route oral; settings: in vivo
Homo sapiens [14] = experiment: Terminal elimination half life in healthy obese adult male human assessed as total radioactivity at 25 mg, po administered as single dose; assay type: ADME, organism-based; settings: in vivo
Serum [15] = experiment: Drug level in healthy obese adult male human serum at 25 mg, po administered as single dose after 24 hrs by HPLC method; assay type: ADME, organism-based; settings: in vivo
Serum [16] = experiment: Drug level in healthy obese adult male human serum at 25 mg, po administered as single dose after 48 hrs by HPLC method; assay type: ADME, organism-based; settings: in vivo
Serum [17] = experiment: AUC in healthy obese adult male human serum at 25 mg, po administered as single dose after 48 hrs by HPLC method; assay type: ADME, organism-based, Plasma; set-up: time < 48 hr, dose 25 mg, route oral; settings: in vivo
Cytochrome P450 1A1 = target: T1, Cytochrome P450 1A1 (Homo sapiens, UniProt P04798); experiment: Drug metabolism assessed as human recombinant CYP1A1-mediated metabolite formation at 10 uM after 60 mins by HPLC method; assay type: ADME; settings: recombinant enzyme, 1 h
T1 sequence (P04798 whole entry): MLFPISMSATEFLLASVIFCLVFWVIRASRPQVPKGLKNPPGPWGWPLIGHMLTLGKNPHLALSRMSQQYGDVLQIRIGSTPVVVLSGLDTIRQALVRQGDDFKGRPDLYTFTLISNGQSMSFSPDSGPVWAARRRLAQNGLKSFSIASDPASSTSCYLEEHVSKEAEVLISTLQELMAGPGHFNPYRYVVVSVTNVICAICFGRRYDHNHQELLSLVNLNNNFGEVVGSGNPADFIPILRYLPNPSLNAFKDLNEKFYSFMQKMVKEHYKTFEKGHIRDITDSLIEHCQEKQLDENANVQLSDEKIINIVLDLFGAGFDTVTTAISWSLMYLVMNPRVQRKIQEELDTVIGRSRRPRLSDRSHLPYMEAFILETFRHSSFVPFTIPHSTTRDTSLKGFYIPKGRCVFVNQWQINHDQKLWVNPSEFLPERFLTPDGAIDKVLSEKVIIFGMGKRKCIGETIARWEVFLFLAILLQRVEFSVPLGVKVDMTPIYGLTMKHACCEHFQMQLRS

Cytochrome P450 1A2 = target: T2, Cytochrome P450 1A2 (Homo sapiens, UniProt P05177); experiment: Drug metabolism assessed as human recombinant CYP1A2-mediated metabolite formation at 10 uM after 60 mins by HPLC method; assay type: ADME; settings: recombinant enzyme, 1 h
T2 sequence (P05177 whole entry): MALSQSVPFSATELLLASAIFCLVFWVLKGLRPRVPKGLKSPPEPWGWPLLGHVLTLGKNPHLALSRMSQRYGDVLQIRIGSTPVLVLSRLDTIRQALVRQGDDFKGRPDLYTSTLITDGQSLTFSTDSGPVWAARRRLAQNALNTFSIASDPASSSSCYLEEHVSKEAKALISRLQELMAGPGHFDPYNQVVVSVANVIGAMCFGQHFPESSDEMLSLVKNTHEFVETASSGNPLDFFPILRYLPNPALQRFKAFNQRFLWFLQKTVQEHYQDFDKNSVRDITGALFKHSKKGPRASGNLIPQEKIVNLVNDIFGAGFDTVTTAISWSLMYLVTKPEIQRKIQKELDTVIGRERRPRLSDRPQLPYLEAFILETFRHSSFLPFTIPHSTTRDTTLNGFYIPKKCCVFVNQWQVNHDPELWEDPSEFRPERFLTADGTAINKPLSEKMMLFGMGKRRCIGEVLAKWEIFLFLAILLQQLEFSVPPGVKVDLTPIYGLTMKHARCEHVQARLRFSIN

Cytochrome P450 2C8 = target: T3, Cytochrome P450 2C8 (Homo sapiens, UniProt P10632); experiment: Drug metabolism assessed as human recombinant CYP2C8-mediated metabolite formation at 10 uM after 60 mins by HPLC method; assay type: ADME; settings: recombinant enzyme, 1 h
T3 sequence (P10632 whole entry): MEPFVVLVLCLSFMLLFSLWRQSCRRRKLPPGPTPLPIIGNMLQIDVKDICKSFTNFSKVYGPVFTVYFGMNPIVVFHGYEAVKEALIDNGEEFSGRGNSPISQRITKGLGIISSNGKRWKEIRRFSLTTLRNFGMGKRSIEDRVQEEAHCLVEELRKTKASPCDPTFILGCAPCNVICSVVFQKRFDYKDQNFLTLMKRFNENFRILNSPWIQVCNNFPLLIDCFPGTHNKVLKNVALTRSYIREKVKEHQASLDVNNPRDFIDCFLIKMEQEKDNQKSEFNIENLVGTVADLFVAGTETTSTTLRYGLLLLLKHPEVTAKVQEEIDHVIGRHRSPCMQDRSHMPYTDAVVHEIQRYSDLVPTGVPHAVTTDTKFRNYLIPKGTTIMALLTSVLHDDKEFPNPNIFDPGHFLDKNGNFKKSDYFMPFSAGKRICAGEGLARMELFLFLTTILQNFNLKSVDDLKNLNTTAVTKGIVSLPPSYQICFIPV

Cytochrome P450 2C9 = Cytochrome P450 2C9 (Homo sapiens, UniProt P11712); experiment: Drug metabolism assessed as human recombinant CYP2C9-mediated metabolite formation at 10 uM after 60 mins by HPLC method; assay type: ADME; settings: recombinant enzyme, 1 h
Cytochrome P450 2C9, sequence (P11712 whole entry): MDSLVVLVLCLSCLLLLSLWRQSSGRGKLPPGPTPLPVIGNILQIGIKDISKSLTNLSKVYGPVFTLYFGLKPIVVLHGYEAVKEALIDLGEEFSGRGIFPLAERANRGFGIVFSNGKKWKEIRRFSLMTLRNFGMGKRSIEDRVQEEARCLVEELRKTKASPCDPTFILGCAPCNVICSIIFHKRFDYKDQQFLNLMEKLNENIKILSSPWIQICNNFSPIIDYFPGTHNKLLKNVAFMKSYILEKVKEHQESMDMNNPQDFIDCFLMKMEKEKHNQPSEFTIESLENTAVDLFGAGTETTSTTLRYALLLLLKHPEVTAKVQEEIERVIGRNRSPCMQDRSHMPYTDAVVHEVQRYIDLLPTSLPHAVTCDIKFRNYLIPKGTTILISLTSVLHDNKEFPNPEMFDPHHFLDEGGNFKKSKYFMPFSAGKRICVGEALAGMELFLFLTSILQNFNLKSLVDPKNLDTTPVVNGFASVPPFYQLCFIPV

Cytochrome P450 2C19 = Cytochrome P450 2C19 (Homo sapiens, UniProt P33261); experiment: Drug metabolism assessed as human recombinant CYP2C19-mediated metabolite formation at 10 uM after 60 mins by HPLC method; assay type: ADME; settings: recombinant enzyme, 1 h
Cytochrome P450 2C19, sequence (P33261 whole entry): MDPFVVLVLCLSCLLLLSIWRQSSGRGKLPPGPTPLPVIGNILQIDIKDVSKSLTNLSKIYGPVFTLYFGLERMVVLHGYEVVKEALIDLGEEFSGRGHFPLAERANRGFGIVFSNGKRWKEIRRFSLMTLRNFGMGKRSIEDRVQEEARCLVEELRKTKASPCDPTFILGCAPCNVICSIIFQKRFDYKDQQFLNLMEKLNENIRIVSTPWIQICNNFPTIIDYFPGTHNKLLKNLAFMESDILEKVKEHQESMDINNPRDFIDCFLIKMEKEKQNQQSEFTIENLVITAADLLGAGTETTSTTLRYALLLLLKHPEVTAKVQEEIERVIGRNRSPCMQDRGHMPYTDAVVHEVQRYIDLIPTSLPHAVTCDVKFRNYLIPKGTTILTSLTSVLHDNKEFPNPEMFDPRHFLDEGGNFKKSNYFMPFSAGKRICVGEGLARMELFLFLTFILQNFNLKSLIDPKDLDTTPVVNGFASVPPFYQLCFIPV

Cytochrome P450 2D6 = Cytochrome P450 2D6 (Homo sapiens, UniProt P10635); experiment: Drug metabolism assessed as human recombinant CYP2D6-mediated metabolite formation at 10 uM after 60 mins by HPLC method; assay type: ADME; settings: recombinant enzyme, 1 h
Cytochrome P450 2D6, sequence (P10635 whole entry): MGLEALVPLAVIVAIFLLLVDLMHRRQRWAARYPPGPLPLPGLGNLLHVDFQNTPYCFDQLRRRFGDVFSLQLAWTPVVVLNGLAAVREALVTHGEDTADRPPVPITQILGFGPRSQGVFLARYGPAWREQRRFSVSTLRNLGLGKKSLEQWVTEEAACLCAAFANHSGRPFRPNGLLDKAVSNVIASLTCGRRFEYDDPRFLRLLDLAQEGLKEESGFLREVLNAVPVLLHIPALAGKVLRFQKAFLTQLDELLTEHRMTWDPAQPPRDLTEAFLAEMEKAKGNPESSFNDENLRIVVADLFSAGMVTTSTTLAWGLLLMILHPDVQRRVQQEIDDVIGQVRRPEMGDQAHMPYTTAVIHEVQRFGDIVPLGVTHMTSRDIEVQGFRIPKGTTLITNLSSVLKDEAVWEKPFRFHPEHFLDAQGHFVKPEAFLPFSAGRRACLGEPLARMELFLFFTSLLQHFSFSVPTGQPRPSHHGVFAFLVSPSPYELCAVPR

Cytochrome P450 2E1 = Cytochrome P450 2E1 (Homo sapiens, UniProt P05181); experiment: Drug metabolism assessed as human recombinant CYP2E1-mediated metabolite formation at 10 uM after 60 mins by HPLC method; assay type: ADME; settings: recombinant enzyme, 1 h
Cytochrome P450 2E1, sequence (P05181 whole entry): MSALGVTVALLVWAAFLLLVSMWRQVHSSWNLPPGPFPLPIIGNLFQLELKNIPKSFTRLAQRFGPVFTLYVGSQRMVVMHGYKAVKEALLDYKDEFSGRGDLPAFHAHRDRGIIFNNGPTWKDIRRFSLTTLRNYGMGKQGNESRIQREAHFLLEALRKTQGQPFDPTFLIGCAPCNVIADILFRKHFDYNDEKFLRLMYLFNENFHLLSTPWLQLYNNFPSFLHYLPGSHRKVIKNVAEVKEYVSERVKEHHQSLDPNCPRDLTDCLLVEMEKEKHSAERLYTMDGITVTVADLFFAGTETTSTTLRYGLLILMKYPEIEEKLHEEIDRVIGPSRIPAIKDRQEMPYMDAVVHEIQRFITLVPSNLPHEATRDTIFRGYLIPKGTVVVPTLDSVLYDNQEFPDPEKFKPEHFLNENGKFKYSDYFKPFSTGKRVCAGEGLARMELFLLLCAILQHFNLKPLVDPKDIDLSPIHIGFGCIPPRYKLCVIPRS

Homo sapiens [18] = experiment: Tmax in healthy obese adult male human assessed as total radioactivity at 25 mg, po administered as single dose; assay type: ADME, organism-based; settings: in vivo
Homo sapiens [19] = experiment: Cmax in healthy obese adult male human assessed as total radioactivity at 25 mg, po administered as single dose; assay type: ADME, organism-based; set-up: dose 25 mg, route oral; settings: in vivo
Homo sapiens [20] = experiment: AUC (0 to last) in healthy obese adult male human assessed as total radioactivity at 25 mg, po administered as single dose; assay type: ADME, organism-based, Plasma; settings: in vivo
[21] = Drug excretion in urine of healthy obese adult male human treated with [14C]CP-945,598 at 25 mg, po administered as single dose after 0 to 384 hrs hrs by HPLC method; assay type: ADME, organism-based; settings: in vivo
Homo sapiens [22] = experiment: Total drug excretion in healthy obese adult male human treated with [14C]CP-945,598 at 25 mg, po administered as single dose after 0 to 384 hrs hrs by HPLC method; assay type: ADME, organism-based; settings: in vivo
[23] = Drug excretion in feces of healthy obese adult male human treated with [14C]CP-945,598 at 25 mg, po administered as single dose after 0 to 384 hrs hrs by HPLC method; assay type: ADME, organism-based; settings: in vivo
Cytochrome P450 3A4 = Cytochrome P450 3A4 (Homo sapiens, UniProt P08684); experiment: Drug metabolism assessed as human recombinant CYP3A4-mediated metabolite formation after 60 mins by HPLC method; assay type: ADME; settings: recombinant enzyme, 1 h
Cytochrome P450 3A4, sequence (P08684 whole entry): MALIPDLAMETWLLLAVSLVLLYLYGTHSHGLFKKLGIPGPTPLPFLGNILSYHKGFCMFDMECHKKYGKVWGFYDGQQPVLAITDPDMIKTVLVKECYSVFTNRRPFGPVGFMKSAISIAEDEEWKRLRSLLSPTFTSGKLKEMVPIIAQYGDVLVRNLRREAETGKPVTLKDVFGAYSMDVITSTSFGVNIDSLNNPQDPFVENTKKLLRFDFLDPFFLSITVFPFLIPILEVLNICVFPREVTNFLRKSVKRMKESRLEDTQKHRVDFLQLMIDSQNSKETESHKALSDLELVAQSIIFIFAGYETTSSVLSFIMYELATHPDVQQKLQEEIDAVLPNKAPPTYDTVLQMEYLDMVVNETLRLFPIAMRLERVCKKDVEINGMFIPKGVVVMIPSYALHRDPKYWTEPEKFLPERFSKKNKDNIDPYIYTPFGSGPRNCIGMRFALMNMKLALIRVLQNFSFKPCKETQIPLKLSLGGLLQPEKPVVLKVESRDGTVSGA

A Tmax [1] of 4 h, a half-life [2] of 107 h and a Tmax [3] of 6 h were found for CCNC1(C(N)=O)CCN(c2ncnc3c2nc(-c2ccccc2Cl)n3-c2ccc(Cl)cc2)CC1.Cl [OTENABANT HYDROCHLORIDE] in this work. It also gave a Cmax [4] of 14 ng/mL, an AUClast (Homo sapiens [5]) of 778 ng·h/mL and an AUC (Homo sapiens [6]) of 864 ng·h/mL. The half-life [7] was 159 h, the bioavailability [8] was 32% and the bioavailability [9] was 32%.

A Drug uptake (Serum [10]) of 12.1 ngequiv/g, a Drug recovery (Rattus norvegicus) of 98% and a Drug recovery (Mus musculus) of 98% were found for CCNC1(C(N)=O)CCN(c2ncnc3c2n[14c](-c2ccccc2Cl)n3-c2ccc(Cl)cc2)CC1.Cl in this work. The Drug recovery (Canis familiaris) was 99%, the Drug uptake (Serum [11]) was 11.5 ngequiv/g and the Drug uptake (Serum [12]) was 8 ngequiv/g. The AUC (Homo sapiens [13]) was 9434 ng/h/mL, the “beta t1/2” value (Homo sapiens [14]) was 190 h and the Drug uptake (Serum [15]) was 6.4 ngequiv/g. The Drug uptake (Serum [16]) was 2.7 ngequiv/g, the AUC (Serum [17]) was 297 ngequiv.hr/g and the Drug metabolism (Cytochrome P450 1A1) was “metabolite_not_detected”. The Drug metabolism (Cytochrome P450 1A2) was “metabolite_not_detected”, the Drug metabolism (Cytochrome P450 2C8) was “metabolite_not_detected” and the Drug metabolism (Cytochrome P450 2C9) was “metabolite_not_detected”. For the same compound, the Drug metabolism (Cytochrome P450 2C19) was “metabolite_not_detected”, the Drug metabolism (Cytochrome P450 2D6) was “metabolite_not_detected” and the Drug metabolism (Cytochrome P450 2E1) was “metabolite_not_detected”. For the same compound, the Tmax (Homo sapiens [18]) was 6 h, the Cmax (Homo sapiens [19]) was 74 ngequiv/g and the AUClast (Homo sapiens [20]) was 8298 ngequiv.hr/g.

A Drug excretion [21] of 4.8% and a Drug excretion (Homo sapiens [22]) of 4.8% were found for NC(=O)C1(NO[C@@H]2O[C@H](CO)[C@@H](O)[C@H](O)[C@H]2O)CCN(c2ncnc3c2nc(-c2ccccc2Cl)n3-c2ccc(Cl)cc2)CC1 in this work.

A Drug excretion [21] of 0.6%, a Drug excretion [23] of 1.2% and a Drug excretion (Homo sapiens [22]) of 1.8% were found for NC(=O)C1(NO)CCN(c2ncnc3c2nc(-c2ccccc2Cl)n3-c2ccc(Cl)cc2)CC1 in this work. It also gave a Drug metabolism (Cytochrome P450 3A4) of 8.8%.

A Drug excretion [21] of 5.4%, a Drug excretion [23] of 30.9% and a Drug excretion (Homo sapiens [22]) of 36.3% were found for NC1(C(=O)O)CCN(c2ncnc3c2nc(-c2ccccc2Cl)n3-c2ccc(Cl)cc2)CC1 in this work.

— ChEMBL document CHEMBL3526047, “Excretion, metabolism, and pharmacokinetics of 1-(8-(2-chlorophenyl)-9-(4-chlorophenyl)-9H-purin-6-yl)-4-(ethylamino)piperidine-4-carboxamide, a selective cannabinoid receptor antagonist, in healthy male volunteers” (Drug Metab Dispos, 2012)
